Key:
[1] = HPLC method quantifying low levels of D9-THC in stored cannabidiol samples; format: physicochemical; conditions: after stored for 23 days at 55-60° C.
Experimental: An analytical method using HPLC was developed to determine low levels of delta-9-tetrahydrocannabinol in cannabidiol samples. A Waters XBridge C18 3.5 μm, 3.0×150 mm column was employed and operated at a temperature of 30° C., UV wavelength of 225 nm, and injection size of 20 μL. Mobile Phase A was 0.02% (v/v) acetic acid in H2O, while mobile phase B was 0.02% (v/v) acetic acid in acetonitrile (ACN).
An aliquot of 0.5 mL of a D9-THC reference standard (Cerilliant, 1.0 mg/mL MeOH solution) was diluted in a 500-mL volumetric flask using sample diluent (70/30 Acetonitrile/H2O, v/v). The D9-THC concentration was 0.001 mg/mL in the standard stock solution, which corresponded with 200 ppm of D9-THC as compared to the CBD sample solution (nominal CBD concentration was 5.0 mg/mL).
An Aliquot of 5 mL of THC Stock Standard Solution was diluted in a 100-mL volumetric flask using the sample diluent. The D9-THC concentration was 0.00005 mg/mL in the working standard solution, corresponding with 10 ppm of D9-THC as compared to the CBD sample solution.
About 50 mg of cannabidiol sample was weighed into a 10-mL volumetric flask. The volumetric flask was diluted to volume using sample diluent and mixed well.
A minimum of 6 working standard solutions were injected prior to the sample set. Furthermore, a maximum of 6 injections of CBD sample were injected between bracketing working standard solutions.
The amount of THC in each sample was calculated using the following
For reference, each chromatogram in FIG. 6A through FIG. 6F is shown against a 10 ppm THC working standard. For samples 1, 2, and 3, roughly 50.28 mg, 50.77 mg, and 55.60 mg material was used.

[2] = Particle size distribution (Mastersizer 2000 laser diffraction, Morphologi G3); format: physicochemical
Text: A Mastersizer 2000 was used to analyze the particle size distribution in cannabidiol samples. This method involved laser diffraction to measure the particle size distribution by the volume standard. Roughly 1 g of each sample was weighed and transferred along the middle of the sample tray. The sample feed gates were 6 mm-8 mm. The instrument software parameters were set to a dispersive air pressure of 3 bar, vibration feed rate of 60%, refractive index of 1.5295, absorption index of 0.01, and size range from 0.020 μm to 2000.000 μm. FIG. 8A-FIG. 8R show the result analysis report for each sample measured as well as their respective particle size distribution graph. Malvern Pananalytical's Morphologi G3 Analyzer was used in another series of experiments to examine sample volume size distribution.

| Compound | Result (D9-THC in ppm) [1] [ppm] | Malvern 2K (dry dispersion) D10 [2] | Malvern 2K (dry dispersion) D50 [2] | Malvern 2K (dry dispersion) D90 [2] |
| --- | --- | --- | --- | --- |
| C=C(C)[C@@H]1CCC(C)=C[C@H]1c1c(O)cc(CCCCC)cc1O [Sample 1, Cannabidiol] | 1.9 | D10: 7.8 um | D50: 21.8 um | D90: 152.9 um |
| C=C(C)[C@@H]1CCC(C)=C[C@H]1c1c(O)cc(CCCCC)cc1O [Sample 2, Cannabidiol] | 5.9 | D10: 8.0 um | D50: 23.9 um | D90: 157.5 um |

— patent US12144795B2, “Cannabidiol compositions having modified cannabinoid profiles” (priority 2018, dated 2024)
